Where two headings read alike, the source gives them in different places.

One data set concerns the target human 5-HT2A receptor (Homo sapiens (Human), UniProt P28223). Nature of the data set: Radioligand binding assay, [3H]-ketanserin, human 5-HT2A receptor. In short, it runs like this: (§1)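 Membranes from transiently transfected HEK293 EBNA cells were incubated 1 h at RT with ten compound concentrations (10 μM-0.1 nM) and radioligand: 0.5 nM [3H]-spiperone for D3 (Tris/NaCl/Mg/Ca buffer, pH 7.4) or 1.1 nM [3H]-ketanserin for 5-HT2A (Tris/MgCl2/EGTA, pH 7.4).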

Another data set deals with human D2 receptor (Homo sapiens (Human), UniProt P14416). Briefly: Radioligand binding assay, [3H]-spiperone, human D2 receptor. The following applies: membranes of HEK293 EBNA cells expressing human D2; 0.7 nM [3H]-spiperone. In short, it runs like this: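 Membranes from HEK293 EBNA cells transiently expressing human D2 were incubated 1 h at RT with ~0.7 nM [3H]-spiperone and ten compound concentrations (10 μM–0.1 nM) in Tris buffer with NaCl, MgCl2, KCl, CaCl2, EDTA, pH 7.4.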
Sequence of human D2 receptor (P14416 whole entry): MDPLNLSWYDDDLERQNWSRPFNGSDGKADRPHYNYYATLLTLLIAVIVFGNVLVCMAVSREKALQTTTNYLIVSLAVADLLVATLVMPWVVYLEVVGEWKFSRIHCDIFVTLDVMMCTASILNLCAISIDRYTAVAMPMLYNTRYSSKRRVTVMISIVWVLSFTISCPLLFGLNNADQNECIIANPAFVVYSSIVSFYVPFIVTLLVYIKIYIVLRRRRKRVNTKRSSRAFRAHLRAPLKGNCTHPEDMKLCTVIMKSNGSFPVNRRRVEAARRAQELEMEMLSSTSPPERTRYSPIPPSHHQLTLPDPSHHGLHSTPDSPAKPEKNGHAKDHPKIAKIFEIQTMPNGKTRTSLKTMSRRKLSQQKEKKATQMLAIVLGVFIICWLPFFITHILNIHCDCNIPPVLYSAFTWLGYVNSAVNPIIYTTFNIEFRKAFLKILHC

A further data set has as its target human D3 receptor (Homo sapiens (Human), UniProt P35462). Briefly: Radioligand binding assay, [3H]-spiperone, human D3 receptor. The note with it: membranes of HEK293 EBNA cells expressing human D3; 0.5 nM [3H]-spiperone. In short, it runs like this: as §1
Where [1] appears, read: membranes of HEK293 EBNA cells expressing human 5-HT2A, 1.1 nM [3H]-ketanserin.

Sequence of human D3 receptor (P35462 whole entry): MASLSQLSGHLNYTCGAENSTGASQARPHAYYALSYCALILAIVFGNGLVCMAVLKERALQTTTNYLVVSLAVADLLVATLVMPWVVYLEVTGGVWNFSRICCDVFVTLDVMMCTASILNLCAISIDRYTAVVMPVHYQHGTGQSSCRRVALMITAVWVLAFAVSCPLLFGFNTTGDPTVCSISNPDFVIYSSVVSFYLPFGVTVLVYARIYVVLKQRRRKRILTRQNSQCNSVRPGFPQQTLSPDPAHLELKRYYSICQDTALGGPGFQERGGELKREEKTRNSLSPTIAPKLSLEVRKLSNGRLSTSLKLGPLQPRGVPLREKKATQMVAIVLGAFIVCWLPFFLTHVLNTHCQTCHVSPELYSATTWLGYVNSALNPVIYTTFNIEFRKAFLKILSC
Sequence of human 5-HT2A receptor (P28223 whole entry): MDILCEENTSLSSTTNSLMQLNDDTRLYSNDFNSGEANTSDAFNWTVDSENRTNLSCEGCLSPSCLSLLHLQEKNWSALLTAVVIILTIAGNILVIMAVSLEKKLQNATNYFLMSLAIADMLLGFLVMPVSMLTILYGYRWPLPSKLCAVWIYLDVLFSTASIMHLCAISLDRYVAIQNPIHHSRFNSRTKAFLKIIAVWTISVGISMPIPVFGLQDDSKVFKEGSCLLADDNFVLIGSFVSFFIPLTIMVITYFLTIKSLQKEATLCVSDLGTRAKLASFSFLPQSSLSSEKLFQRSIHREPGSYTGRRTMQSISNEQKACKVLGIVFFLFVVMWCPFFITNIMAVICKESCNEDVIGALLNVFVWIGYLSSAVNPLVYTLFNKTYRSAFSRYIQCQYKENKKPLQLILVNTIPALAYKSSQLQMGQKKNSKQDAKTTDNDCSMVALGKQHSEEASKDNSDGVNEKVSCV

What is called Ki is a measure of affinity in units of concentration, obtained from inhibition or displacement. As a reminder, the melting point is the temperature, or range, at which the solid turns liquid. The molecule `C/C=C/CC(=O)N[C@H]1CC[C@H](CCN2CCN(c3nccc4c3CCO4)CC2)CC1` [Example 81, (E)-Pent-3-enoic acid trans-(4-{2-[4-(2,3-dihydro-furo[3,2-c]pyridin-4-yl)-piperazin-1-yl]-ethyl}-cyclohexyl)-amide] registered a melting point of 175.5 °C. The Ki at human 5-HT2A receptor (setting [1]) came to 22.8 nM. Moreover, the Ki at human D2 receptor is 945 nM. For the same molecule, the Ki on human D3 receptor is 12.9 nM.
In turn, `COC(CCC(=O)N[C@H]1CC[C@H](CCN2CCN(c3nccc4c3CCO4)CC2)CC1)OC` [Example 114, trans-N-(4-{2-[4-(2,3-Dihydro-furo[3,2-c]pyridin-4-yl)-piperazin-1-yl]-ethyl}-cyclohexyl)-4,4-dimethoxy-butyramide] had a melting point of 205.5 °C. For the same molecule, on human 5-HT2A receptor (setting [1]), the Ki stood at 18.1 nM. Further, the inhibitory constant (Ki) at human D2 receptor was 2370 nM. In addition, the Ki at human D3 receptor stood at 68 nM.
The like results for `CO[C@H](C)C(=O)N[C@H]1CC[C@H](CCN2CCN(c3nccc4c3CCO4)CC2)CC1` [Example 135, trans-(R)—N-(4-{2-[4-(2,3-Dihydro-furo[3,2-c]pyridin-4-yl)-piperazin-1-yl]-ethyl}-cyclohexyl)-2-methoxy-propionamide] were, in that order, 159 °C, 7 nM, 680 nM and 109 nM.
In turn, `Cc1cnc(N2CCN(CC[C@H]3CC[C@H](NC(=O)CC4CCOCC4)CC3)CC2)c2ccoc12` [Example 106, trans-N-(4-{2-[4-(7-Methyl-furo[3,2-c]pyridin-4-yl)-piperazin-1-yl]-ethyl}-cyclohexyl)-2-(tetrahydro-pyran-4-yl)-acetamide] returned a melting point of 205.5 °C. Besides, at human 5-HT2A receptor (setting [1]), the Ki worked out at 11.7 nM. In addition, the Ki at human D2 receptor came out at 2720 nM. Besides, the Ki on human D3 receptor worked out at 38 nM.
As for `CC[C@@H](O)CC(=O)N[C@H]1CC[C@H](CCN2CCN(c3nccc4c3CCO4)CC2)CC1` [Example 140, (R)-3-Hydroxy-pentanoic acid trans-(4-{2-[4-(2,3-dihydro-furo[3,2-c]pyridin-4-yl)-piperazin-1-yl]-ethyl}-cyclohexyl)-amide], the melting point turned out to be 161 °C. In addition, the Ki on human 5-HT2A receptor was found to be 42 nM. The Ki at human D2 receptor was determined as 843 nM. Besides, the Ki at human D3 receptor was found to be 44.4 nM.
On to `O=C(N[C@H]1CC[C@H](CCN2CCN(c3nccc4c3CCO4)CC2)CC1)c1ccc(-n2cccn2)cc1` [Example 126, trans-N-(4-{2-[4-(2,3-Dihydro-furo[3,2-c]pyridin-4-yl)-piperazin-1-yl]-ethyl}-cyclohexyl)-4-pyrazol-1-yl-benzamide], for which the melting point came to 229 °C. Also, the Ki on human 5-HT2A receptor (setting [1]) turned out to be 35.9 nM. In addition, the Ki at human D2 receptor came out at 478 nM. For the same molecule, the Ki at human D3 receptor worked out at 44.3 nM.
The like results for `CC#CC(=O)N[C@H]1CC[C@H](CCN2CCN(c3nccc4c3CCO4)CC2)CC1` [Example 82, But-2-ynoic acid trans-(4-{2-[4-(2,3-dihydro-furo[3,2-c]pyridin-4-yl)-piperazin-1-yl]-ethyl}-cyclohexyl)-amide] were, in that order, 193 °C, 12.2 nM, 426 nM and 17.2 nM.
As for `O=C(CC(F)(F)F)N[C@H]1CC[C@H](CCN2CCN(c3nccc4c3CCO4)CC2)CC1` [Example 60, trans-N-(4-{2-[4-(2,3-Dihydro-furo[3,2-c]pyridin-4-yl)-piperazin-1-yl]-ethyl}-cyclohexyl)-3,3,3-trifluoro-propionamide], the melting point turned out to be 195.5 °C. For the same molecule, on human 5-HT2A receptor (setting [1]), the Ki was 11 nM. For the same molecule, at human D2 receptor, the Ki was determined as 688 nM. Further, on human D3 receptor, the Ki worked out at 6.55 nM.
For the molecule `O=C(N[C@H]1CC[C@H](CCN2CCN(c3nccc4c3CCO4)CC2)CC1)c1ccc(N2CCCCC2)cc1` [Example 56, trans-N-(4-{2-[4-(2,3-Dihydro-furo[3,2-c]pyridin-4-yl)-piperazin-1-yl]-ethyl}-cyclohexyl)-4-piperidin-1-yl-benzamide], the melting point worked out at 214.5 °C. Also, at human 5-HT2A receptor, the Ki was 19.2 nM. For the same molecule, the Ki at human D2 receptor amounted to 5340 nM. Besides, on human D3 receptor, the Ki stood at 44.3 nM.
As to `O=C(N[C@H]1CC[C@H](CCN2CCN(c3nccc4c3CCO4)CC2)CC1)c1ccc(-c2cccnc2)cc1` [Example 120, trans-N-(4-{2-[4-(2,3-Dihydro-furo[3,2-c]pyridin-4-yl)-piperazin-1-yl]-ethyl}-cyclohexyl)-4-pyridin-3-yl-benzamide], the melting point stood at 218 °C. In addition, the Ki at human 5-HT2A receptor (setting [1]) worked out at 12.3 nM. Also, at human D2 receptor, the Ki amounted to 223 nM. Moreover, the Ki on human D3 receptor amounted to 16.1 nM.
On to `COCC(=O)N[C@H]1CC[C@H](CCN2CCN(c3nccc4c3CCO4)CC2)CC1` [Example 38, trans-N-(4-{2-[4-(2,3-Dihydrofuro[3,2-c]pyridin-4-yl)-piperazin-1-yl]-ethyl}-cyclohexyl)-2-methoxyacetamide], for which the melting point was found to be 169.5 °C. The Ki on human 5-HT2A receptor was found to be 11 nM. Moreover, at human D2 receptor, the Ki is 1550 nM. Further, at human D3 receptor, the Ki stood at 45.4 nM.
Consider `Cc1cc(C(=O)N[C@H]2CC[C@H](CCN3CCN(c4nccc5c4CCO5)CC3)CC2)on1` [Example 85, 3-Methyl-isoxazole-5-carboxylic acid trans-(4-{2-[4-(2,3-dihydro-furo[3,2-c]pyridin-4-yl)-piperazin-1-yl]-ethyl}-cyclohexyl)-amide], for which the melting point came to 218 °C. Moreover, the Ki at human 5-HT2A receptor worked out at 15.7 nM. Further, the Ki at human D2 receptor is 397 nM. In addition, the Ki at human D3 receptor was 31.1 nM.
Regarding `CO[C@H]1CC[C@H](CC(=O)N[C@H]2CC[C@H](CCN3CCN(c4nccc5c4CCO5)CC3)CC2)C1` [Example 90, trans-N-(4-{2-[4-(2,3-Dihydro-furo[3,2-c]pyridin-4-yl)-piperazin-1-yl]-ethyl}-cyclohexyl)-2-((1S,3S)-3-methoxy-cyclopentyl)-acetamide], the melting point was determined as 241 °C. Further, the Ki at human 5-HT2A receptor (setting [1]) worked out at 22.4 nM. On human D2 receptor, the Ki was 1290 nM. Also, the Ki on human D3 receptor stood at 19.4 nM.
In turn, `O=C(N[C@H]1CC[C@H](CCN2CCN(c3nccc4c3CCO4)CC2)CC1)c1ccc(C(F)(F)F)cc1` [Example 47, trans-N-(4-{2-[4-(2,3-Dihydro-furo[3,2-c]pyridin-4-yl)-piperazin-1-yl]-ethyl}-cyclohexyl)-4-trifluoromethyl-benzamide] returned a melting point of 227 °C. The inhibition constant Ki at human 5-HT2A receptor (setting [1]) stood at 18.8 nM. Also, at human D2 receptor, the Ki stood at 871 nM. In addition, the Ki on human D3 receptor came out at 57 nM.
`CC(=O)N[C@H]1CC[C@H](CCN2CCN(c3nc(C)cc4occc34)CC2)CC1` [Example 96, trans-N-(4-{2-[4-(6-Methyl-furo[3,2-c]pyridin-4-yl)-piperazin-1-yl]-ethyl}-cyclohexyl)-acetamide] gave a melting point of 207.5 °C. Besides, at human 5-HT2A receptor (setting [1]), the Ki was found to be 75.2 nM. Also, the Ki on human D2 receptor is 249 nM. Also, the inhibition constant (Ki) at human D3 receptor stood at 4.64 nM.
The molecule `O=C(N[C@H]1CC[C@H](CCN2CCN(c3nccc4c3CCO4)CC2)CC1)c1ccc(F)cc1` [Example 45, trans-N-(4-{2-[4-(2,3-Dihydro-furo[3,2-c]pyridin-4-yl)-piperazin-1-yl]-ethyl}-cyclohexyl)-4-fluoro-benzamide] gave a melting point of 209.5 °C. Further, on human 5-HT2A receptor, the Ki is 11.1 nM. Also, the Ki at human D2 receptor was determined as 342 nM. The Ki on human D3 receptor was found to be 10.7 nM.
Consider `CS(=O)(=O)c1ccc(C(=O)N[C@H]2CC[C@H](CCN3CCN(c4nccc5c4CCO5)CC3)CC2)s1` [Example 115, 5-Methanesulfonyl-thiophene-2-carboxylic acid trans-(4-{2-[4-(2,3-dihydro-furo[3,2-c]pyridin-4-yl)-piperazin-1-yl]-ethyl}-cyclohexyl)-amide], for which the melting point stood at 229 °C. Besides, the Ki at human 5-HT2A receptor (setting [1]) stood at 9.46 nM. The Ki on human D2 receptor stood at 516 nM. The Ki on human D3 receptor came to 33.8 nM.
Take `Cc1cc2occc2c(N2CCN(CC[C@H]3CC[C@H](NC(=O)C4CCOCC4)CC3)CC2)n1` [Example 97, trans-Tetrahydro-pyran-4-carboxylic acid (4-{2-[4-(6-methyl-furo[3,2-c]pyridin-4-yl)-piperazin-1-yl]-ethyl}-cyclohexyl)-amide]: the melting point was found to be 219 °C. Also, on human 5-HT2A receptor, the Ki was found to be 25.5 nM. Besides, the Ki on human D2 receptor stood at 275 nM. For the same molecule, on human D3 receptor, the inhibition constant (Ki) stood at 14.2 nM.
`COC(CC(=O)N[C@H]1CC[C@H](CCN2CCN(c3nccc4c3CCO4)CC2)CC1)OC` [Example 113, trans-N-(4-{2-[4-(2,3-Dihydro-furo[3,2-c]pyridin-4-yl)-piperazin-1-yl]-ethyl}-cyclohexyl)-3,3-dimethoxy-propionamide] registered a melting point of 220 °C. Also, at human 5-HT2A receptor (setting [1]), the Ki is 15.7 nM. For the same molecule, at human D2 receptor, the Ki is 1380 nM. Also, on human D3 receptor, the Ki came out at 19.3 nM.
With `COCCC(=O)N[C@H]1CC[C@H](CCN2CCN(c3ncc(C)c4occc34)CC2)CC1` [Example 107, trans-3-Methoxy-N-(4-{2-[4-(7-methyl-furo[3,2-c]pyridin-4-yl)-piperazin-1-yl]-ethyl}-cyclohexyl)-propionamide], the melting point worked out at 177 °C. In addition, the Ki at human 5-HT2A receptor (setting [1]) was 12 nM. The Ki at human D2 receptor stood at 2470 nM. The Ki at human D3 receptor was 30 nM.
Turning to `Cc1cc2occc2c(N2CCN(CC[C@H]3CC[C@H](NC(=O)CC4CCOCC4)CC3)CC2)n1` [Example 98, trans-N-(4-{2-[4-(6-Methyl-furo[3,2-c]pyridin-4-yl)-piperazin-1-yl]-ethyl}-cyclohexyl)-2-(tetrahydro-pyran-4-yl)-acetamide], the melting point turned out to be 212.5 °C. The Ki on human 5-HT2A receptor (setting [1]) is 75.9 nM. The Ki on human D2 receptor turned out to be 641 nM. Further, the Ki on human D3 receptor was found to be 9.45 nM.

(Values after patent US8586579B2, “Anellated pyridine compounds” (Hoffmann-La Roche Inc., priority 2010, dated 2013).)
